The values that follow come from patent US20230293405A1, “Compositions Comprising UV-Filters and One or More (Bio)-Alkanediols” (Symrise AG, priority 2020, published 2023).

Data set [1] in a line: Solubility of alkanediols in water (visual observation). Particulars: assessed at ambient temperature after 24 h storage at 5° C.
Excerpt: The water solubility of a substance is the saturation mass concentration of the substance in water at a given temperature. The determination of the solubility in water relates to essentially pure substances which are stable in water and not volatile.
For the determination of the water solubility of an alkanediol, water and different concentrations of the respective alkanediol were blended by stirring. […] The determination of whether the alkanediol has dissolved in water is based entirely on visual observation.
Data set [2] can be described thus: Sensory properties of oil component blended with alkanediol, assessed by untrained panelists on the backside of the hand. It is filed as in vivo. The following applies: scale 1 (low) to 5 (high absorption). An excerpt: For evaluating the sensory behavior, oil components specified in the following Table 13 were blended with 1,2-heptanediol or 2,3-heptanediol or a mixture of 1,2-heptanediol and 2,3-heptanediol or 1,2-octanediol or 2,3-octanediol or a mixture of 1,2-octanediol and 2,3-octanediol (formulation) and assessed by untrained panelists in comparison to the oil component without addition of the specified alkanediols (placebo).
Test procedure: • Hands were pre-washed with liquid soap by following a defined procedure; • 30 μl of corresponding sample was applied on the backside of each hand (randomized); • After 30 s the spreading behavior of the respective formulation on skin was evaluated versus the respective oil component without 1,2-heptanediol on a scale from 1 to 5 (1=low spreading; 5=high spreading); • The samples were distributed with the fingertips of middle and forefinger with 2×5 cycles; • After 2 minutes, the fatty/greasy skin feeling was evaluated on a scale from 1 to 5 (1=low fatty/greasy skin feeling; 5=high fatty/greasy skin feeling); • Furthermore, the applicants were asked to assess the absorption, i.e. the impression of amount of remaining residue on the skin on a scale from 1 to 5 (1=low absorption; 5=high absorption).

[3] abbreviates: in Caprylic Capric Triglyceride (neutral oil).
[4] abbreviates: in Helianthus Annuus (Sunflower) Seed Oil.

Regarding `CCCCCC(O)CO` (stereo not shown) [1,2-heptanediol], in data set [1], the “Maximum solubility in water (% by weight)” value is 2.5 % by weight. Besides, the Absorption/remaining residue with in data set [2] (in Argan Oil) is given as 2.8; in data set [2] (in Avocado Oil), 2.6; in data set [2] (in Butyrospermum Parkii (Shea) Butter), 2.7; in data set [2] (in Cacao butter), 3.6; in data set [2] (setting [3]), 2.7; in data set [2] (in Castor Oil) it was 4. For the same compound, the Absorption/remaining residue with in data set [2] (in Cetearyl Nonanoate (SymMollient S)) was 2; in data set [2] (in Chlorella oil (biotech)), 3; in data set [2] (in Coconut Oil), 2; in data set [2] (in Ethylhexyl Methoxycinnamate (Neo Heliopan AV)), 3; in data set [2] (in Ethylhexyl Salicylate (Neo Heliopan OS)) it was 2.2; in data set [2] (in Grapeseed Oil) it was 2.8. The Absorption/remaining residue with is reported as 2 in data set [2] (setting [4]); 2.7 in data set [2] (in Hexyldecanol (Eutanol G)); 2.5 in data set [2] (in Homosalate (Neo Heliopan HMS)); 2.5 in data set [2] (in Isoamyl p-Methoxycinnamate (Neo Heliopan E 1000)); 2.5 in data set [2] (in Microalgae oil); 2.7 in data set [2] (in Octocrylene (Neo Heliopan 303)). The Absorption/remaining residue with in data set [2] (in Olive Oil) is given as 2.4; in data set [2] (in Propanediol Dicaprylate/Dicaprate (Symollient PDCC)) it was 2.4; in data set [2] (in Prunus Amygdalus Dulcis (Sweet Almond) Oil), 2.2; in data set [2] (in Simmondsia Chinensis (Jojoba) Seed Oil) it was 2.5.

For the compound `CCCCCCCC(O)CO` (stereo not shown) [1,2-nonanediol], in data set [1], the “Maximum solubility in water (% by weight)” value amounted to 0.1 % by weight.

Take `CCCCCCC(O)CO` (stereo not shown) [1,2-octanediol]: the Absorption/remaining residue with came out at 2.6 in data set [2] (in Argan Oil); 2.6 in data set [2] (in Avocado Oil); 3 in data set [2] (in Cacao butter); 3 in data set [2] (in Coconut Oil); 1.6 in data set [2] (in Grapeseed Oil); 2 in data set [2] (setting [4]). The compound also displayed an Absorption/remaining residue with in data set [2] (in Olive Oil) of 2.6.

Regarding `CCCCC(O)C(C)O` (stereo not shown) [2,3-heptanediol], in data set [1], the “Maximum solubility in water (% by weight)” value was found to be 3.6 % by weight. For the same compound, the Absorption/remaining residue with was found to be 2.4 in data set [2] (in Argan Oil); 2.4 in data set [2] (in Avocado Oil); 3.2 in data set [2] (in Cacao butter); 3 in data set [2] (setting [3]); 3.8 in data set [2] (in Castor Oil); 2.4 in data set [2] (in Coconut Oil). In addition, the Absorption/remaining residue with in data set [2] (in Grapeseed Oil) is on record as 2.2; in data set [2] (setting [4]), 2.6; in data set [2] (in Olive Oil), 2.

`CCCCCCC(O)C(C)O` (stereo not shown) [2,3-nonanediol]: the “Maximum solubility in water (% by weight)” value in data set [1] is given as 0.3 % by weight.

For `CCCCCC(O)C(C)O` (stereo not shown) [2,3-octanediol], the “Maximum solubility in water (% by weight)” value in data set [1] amounted to 1.5 % by weight. Moreover, the Absorption/remaining residue with stood at 2.2 in data set [2] (in Argan Oil); 2.4 in data set [2] (in Avocado Oil); 2.8 in data set [2] (in Cacao butter); 3 in data set [2] (in Castor Oil); 2.6 in data set [2] (in Coconut Oil); 2.4 in data set [2] (in Grapeseed Oil). Also, the Absorption/remaining residue with in data set [2] (setting [4]) is 3.4; in data set [2] (in Olive Oil) it was 2.6.

As for `CCCCCCC(O)CO` (stereo not shown) [Hydrolite ® 8, Caprylyl Glycol], the “Maximum solubility in water (% by weight)” value in data set [1] is recorded as 0.5 % by weight.
